Square brackets hold non-standard residues; d marks the D form. Peptide text beside a SMILES is read from it. pS = N[C@@H](COP(=O)(O)O)C(=O)O
Legend:
RSV NNTD = biological target: T1, RSV NNTD (Human respiratory syncytial virus A, UniProt P03418); assay: NMR titration of 15N-labeled NNTD (1H-15N HSQC chemical shift perturbations); assay type: binding; settings: 20 mM MES pH 6.5, 250 mM NaCl, 20 °C; single site model; mean of 26 individual values; read-out: mean Kd from residue-specific Kds
T1 construct: The N-terminal domain NNTD (residues 31–252), containing a C-terminal 6x histidine tag; 6xHis (C); made in house; host or cells: E. coli BL21(DE3)
Text: Here, as P protein is constitutively phosphorylated on Ser232 and Ser237 residues in cells, we first investigated the impact of phosphorylation on the affinity of the NNTD-PCtail complex. We performed an NMR titration experiment by adding increasing amounts of pP11 peptide, where Ser232 and Ser237 residues were replaced by O-phosphoserines (pSer, Figure 1A), to a solution of ^15N-labeled NNTD, and measured 2D ^1H-^15N HSQC spectra (Figure 2A). We worked in the same buffer as with P12. At pH 6.5, the pSer sidechains are expected to be mostly negatively charged. Addition of pP11 induced perturbations in the HSQC spectrum of NNTD, in particular chemical shift perturbations (CSPs). […] We measured combined ^1H and ^15N amide CSPs (Equation (1)) for NNTD signals in a fast chemical exchange regime, i.e., signals that shifted in the spectrum without broadening at intermediate titration points (e.g., Ile129 in Figure 2A). Significant CSPs were located in and around the P-binding pocket, confirming that pP11 binds to the previously determined P-binding epitope on NNTD (Figure 2B,C). […]
Overall, signals of bound NNTD were broader than those of unbound NNTD (Figure 2A). […] From chemical shift differences measured for these residues we determined an exchange rate kex of ~800 s^−1 (from Equation (3)) between free and bound NNTD, which indicates a fast dynamic process. […]

RSV N-RNA complex = biological target: T2, RSV N-RNA complex (Human respiratory syncytial virus A, UniProt P03418); assay: Fluorescence polarization inhibition of N-RNA binding to fluorescent probes; settings: Ki, probe BCN11EE, [N-RNA] 1 µM; IC50-to-Ki server
T2 construct: Full-length N was produced by co-expression with the C-terminal domain of RSV P protein in E. coli BL21(DE3); made in house; host or cells: E. coli BL21(DE3), co-transformed with pET-N and pGEX-P(161–241)
T2 sequence (P03418 whole entry, looked up, the tested form may be a part, one chain of several): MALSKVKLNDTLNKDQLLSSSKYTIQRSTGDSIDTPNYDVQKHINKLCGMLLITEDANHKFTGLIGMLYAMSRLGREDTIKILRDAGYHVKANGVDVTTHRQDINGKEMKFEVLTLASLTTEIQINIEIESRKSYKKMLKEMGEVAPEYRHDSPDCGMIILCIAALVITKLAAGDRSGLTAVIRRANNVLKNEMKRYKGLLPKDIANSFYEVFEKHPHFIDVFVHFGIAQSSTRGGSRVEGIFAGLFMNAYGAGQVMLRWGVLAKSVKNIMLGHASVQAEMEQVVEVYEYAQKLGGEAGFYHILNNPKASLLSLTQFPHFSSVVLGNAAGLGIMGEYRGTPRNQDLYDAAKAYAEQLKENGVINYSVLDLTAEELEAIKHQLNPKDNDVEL
Text: We next performed inhibition experiments for the F11-(N-RNA) complex by M76 (Figure 4B). FP values decreased with increasing competitor concentration. At saturation, FP nearly reached the value of free F11, showing that the F11 peptide could be nearly completely displaced. Since the same concentration range was used for NNTD and N-RNA, poor solubility of M76 can be ruled out to explain the saturation observed before complete displacement of F11 in the presence NNTD (Figure 3C). This reinforces the hypothesis of a second binding site on NNTD, outside the canonical P-binding site. […]
To probe the potency of M76 as an inhibitor, we carried out competition experiments with the M76 molecule and several BCNn peptides. M76 was able to displace the fluorescent probes from N-RNA, and inhibition curves were obtained (Figure 8E). Since we used different N concentrations to have similar dynamic ranges of FP for the series of fluorescent peptides, we cannot directly compare M76 IC50s. However, Kis may be compared.
Fluorescence polarization measurements were carried out on a Paradigm Detection Platform (Beckman Coulter, Brea, CA, USA) operating with a microplate reader, a fluorescein detection cartridge (excitation range 485/20 nm, emission range 535/25 nm for both parallel and perpendicular components) and the SpectraMax Pro 6.1 software (Molecular Devices, San Jose, CA, USA). Samples were placed in polystyrene black flat bottom 96-well microplates (Cellstar, Greiner bio-one, Frickenhausen, Germany) with 20 µL final volume in each well. If not stated otherwise, the final concentration of fluorescent ligands was 200 nM. The buffer was either 20 mM MES pH 6.5, salt-free or with 250 mM NaCl, or 20 mM Tris pH 8.0 salt-free or with 100 mM NaCl, supplemented with 0.01% Brij-35. Mixing was done using the corresponding plate reader option. The temperature was set to 20 °C. Data were recorded in top reading mode. Measurements were done in triplicate and after an incubation time of 30 min, if not indicated otherwise. Fluorescence polarization (FP) in mFP units was determined from the parallel (I∥) and perpendicular (I⊥) components of the emitted light according to Equation (4). A grating factor G of 1.2 was determined using 1 nM fluorescein in 1 mM NaOH and assuming a theoretical FP of 27 mFP [48]. Background signal was measured from wells containing only buffer, and the mean value was subtracted from each I∥ and I⊥ component. (4) FP (mP)=1000×(I∥−G∗I⊥)/(I∥+G×I⊥)
To assess inhibition of a complex between a fluorescent probe and N protein by peptides or the M76 molecule, the concentration of N was set to work with an FP range comprised between FPmin and ~80% FPmax. Peptides were added from 1 or 2 mM stock solution in water at neutral pH. M76 was added from 10 or 20 mM stock solutions in ethanol or in DMSO. […] Inhibition data were fitted with Origin 7, and in parallel with the Excel solver module. All data were compatible with an absence of cooperativity. FPmax and FPmin were fitted, and the maximal inhibition %i,max was set to 100%. (11) %i=100×[1−(FP−FPmin)/(FPmax−FPmin)] (12) %i=%i,max×[inhibitor]/[inhibitor]+IC50
Inhibition constants Ki were calculated on the IC50-to-Ki converter for a protein-ligand-inhibitor system (https://bioinfo-abcc.ncifcrf.gov/IC50_Ki_Converter/index.php, accessed on 24 August 2022), assuming a competitive mechanism (Equation (13)). This tool takes into account the free concentrations of protein and ligand. (13) Ki=(IC50−[protein]/2)/([peptide]/Kd+1)

CC(C)C[C@H](NC(=O)[C@H](COP(=O)(O)O)NC(=O)[C@H](CC(C)C)NC(=O)[C@H](CC(=O)O)NC(=O)[C@H](CC(N)=O)NC(=O)[C@H](CC(=O)O)NC(=O)[C@H](COP(=O)(O)O)NC(=O)[C@@H](N)CC(=O)O)C(=O)N[C@@H](CCC(=O)O)C(=O)N[C@@H](CC(=O)O)C(=O)N[C@@H](Cc1ccccc1)C(=O)O [pP11] (H-D[pS]DNDL[pS]LEDF-OH) was tested, and the Kd (RSV NNTD) was 17 ± 4.5 µM and the Ki (RSV N-RNA complex) was 1.4 µM.
